Measurements from patent EP4361137A1, “PRUNE1 INHIBITORS AND THERAPEUTIC USE THEREOF” (CEINGE Biotecnologie Avanzate Franco Salvatore s.c. a r.l., priority 2022, dated 2024).
“And” between values parts separate entries of the source, which are not always exact repeats. Identical values can stand only once. “Also recorded” adds a separate entry of the source.

Legend:
[1] = 15, 30, and 60 mg/kg intraperitoneally daily for 1 week; Ferrucci et al.; cited from earlier work
D425-MED cells [2] = conditions: Ferrucci et al., 2018, read-out: IC50 reported for AA7.1 in the same D425-Med cells; cited from earlier work
MATH1-Prune1/ TP53-/- = assay: Orthotopic implantation of MATH1-Prune1/TP53-/- cells in immunocompetent syngeneic mice, tumor growth; format: in vivo, FVB WT mice; conditions: AA7.1 at 30 mg/kg/day or 60 mg/kg/day intraperitoneally
Procedure: MATH1-Prune1/ TP53-/- were implanted into the right cerebellar hemisphere of female (n.10) immunocompetent syngeneic mice model (5 weeks old, strain: FVB WT) to establish intracerebellar MATH1-Prune1/ TP53-/- models. Mice were anaesthetised with Ketamine/ Xylazine (87.5 mg/kg, 12.5 mg/kg, respectively). The mice were then placed in a stereotactic frame by hooking their incisors onto the frame hold. A small skin incision (length, 1 mm) and a burr hole (diameter, 0.7 mm) were created using a microsurgical drill (Fine Science Tools, Foster City, CA, USA of MATH1-Prune1/ TP53-/- (1.5 ×10^5) were resuspended in 10 µL PBS and injected slowly through the burr hole into the right cerebellar hemisphere (stereotactic coordinates from Bregma: anteroposterior, 5.5 mm; right lateral, 2.1 mm; dorsoventral 5.0 mm), with a steady force over 30 s, using a 10-AL, 26-gauge Hamilton Gastight model 1701RN syringe needle (SigmaAldrich) that was inserted perpendicular to the cranial surface. The incision was sutured using Safil polyglycolic acid synthetic absorbable suture (6/0). The mice were kept on a warming blanket after the surgery, to help them to maintain their body temperature. Their mobility and respiratory patterns were observed continuously, and once the mice had recovered from the anaesthesia; they were place in a sterile housing cage. The mice were monitored daily for development of potential neurological deficits. 10 days after the implantation of the cells, the mice were imaged, and tumour growth was evaluated by bioluminescence acquisition using an imaging system (IVIS 3D Illumina; Xenogen/ Caliper). For the acquisitions, the mice were anaesthetised by inhalational of isoflurane, and the D-luciferin (122799; PerkinElmer) (15 mg/mL stock) was injected intraperitoneally (100 µL per 10 g body weight). At 5 min from the luciferin injection, the mice were imaged for 3 min. To quantify the bioluminescence, the integrated fluxes of photons (p/s) within each area of interest were determined using the Living Images Software Package 3.2 (Xenogen-Perkin Elmer). […] After 17 days from tumour implantation (i.e., after one weeks of LEO-AA7.5(S)T treatment), the mice were sacrificed, and the organs were collected for immunohistochemistry and immunofluorescence analyses.
Paraffin sections of the tumor specimens (thickness, 3 µm) were deparaffinised and rehydrated by immersing the slides in Xylene Substitute (A5597; Sigma), as three washes for 5 min each, then serially in 100%, 95%, 70%, 50%, and 30% ethanol (two washes for 10 min, for each), and deionised water (two washes, for 5 min each). The washes were then followed by PBS, PBS containing 0.02% Triton-X 100 (215680010; Acros Organics), and PBS (two washes for 5 min, for each). For antigen retrieval, the slides were immersed in boiling 10 mM sodium citrate buffer (pH 6.0) using a microwave oven, and then maintained at sub-boiling temperature for 10 min. The slides were left to cool at room temperature for 30 min. The sections were then washed by immersion in distilled water for 5 min. To block endogenous peroxidase activity, the tissue sections were placed in a solution with 3.0% hydrogen peroxide in methanol for 15 min. Then, to decrease the nonspecific background fluorescence, the tissues were digested by treating them with a solution containing 0.2% trypsin (T2600000; Sigma-Aldrich) and 0.001% CaCl2 for 10 min at 37 °C, in a humidified chamber. The slides were then washed in PBS, PBS containing 0.02% Triton-X 100 (215680010; Acros Organics), and PBS (two washes for 5 min, for each). The tissue sections were blocked with 6% bovine serum albumin (A9418; Sigma), 5% fetal bovine serum (ECS0180L; Euroclone), and 20 mM MgCl2 in PBS containing 0.02% Triton-X 100, for 1 h at room temperature, and incubated overnight with the primary antibodies at 4 °C in a humidified chamber. […]

Caspase 3 = Caspase 3 activity assay; format: cell-based, murine; conditions: MATH1-Prune1/TP53-/- cells; Vincristine 0.3 nM and 0.03 nM; LEO-AA7.5(S)T 10 µM; 24 hours
Procedure: MATH1-Prune1/TP53-/- cells (3×10^4) were plated in 96-well plate and treated with different doses of Vincristine (i.e., 0.3 nM or 0.03 nM) alone or combined to 10 µM LEO-AA7.5(S)T. Vehicle- (0.01% DMSO) treated cells were used as negative controls. Staurosporine-treated cells (1 µM) were used as positive controls of the assays. The assay was performed by using Caspase-3 Activity Assay Kit (#5723, Cell Signaling), by following the manufacture's instruction. Briefly, after 24 hours from the treatment started, cell medium was removed and 30 ul of cell lysis buffer (PI-7018, Cell Signaling) were added. The plate was then incubated for 5 minutes on ice. Later, 25 ul of cell lysate were mixed with 200 ul substrate solution B (#11734S, Cell Signaling) in a black 96 well plate. Fluorescence was detected by using a multimode plate reader (Enspire, 2300, PerkinElmer). The positive control AMC (25 µl, #11735S, Cell Signaling) mixed with 200 ul 1X assay buffer A (#11736S, Cell Signaling) was used as positive control of fluorescence.

[3] = tested on: MATH1-Prune1/TP53-/- cells; assay: Real-time cell proliferation assay (cell index, xCELLigence); format: cell-based, murine; conditions: impedance every 2 min over 24 h
Procedure: Primary murine TNBC cells from tumors generated by MMTV-Prune1/Wnt1 mice [Ferrucci et al., 2021] and Primary murine Medulloblastoma Group 3 cells from tumors generated MATH-Prune1/TP53-/- mice were obtained (2 months from tumor onset).
(§1) Cellular proliferation rates were determined with the xCELLigence system (Roche). D425-MED, MATH-Prune1/TP53-/- and MMTV-Prune1/Wnt1 cells (8 × 10^3) were treated with increasing concentrations of LEO-AA7.5(S)T, harvested, and then added to a single well of an xCELLigence E-plate 16. The proliferation rates were determined at 2-min intervals by measuring the impedance changes across the electrodes at the bottoms of the wells. These cell index values were calculated by the xCELLigence RTCA software. with vehicle-treated cells were the negative control. Impedance was measured every 2 min over 24 hours. The IC50 values were calculated through nonlinear regression analysis performed with Graph Pad Prism 9 ([inhibitor] vs. response (three parameters). Data are means ± SD of three independent experiments.

D425-MED cells [4] = assay: as above; format: cell-based, human; conditions: combination with Vincristine
Procedure: J774A.1 murine macrophages (referred to as J774 cells; ATCC: #TIB-67), MMTV-Prune1-Wnt1 cells were grown in high-glucose Dulbecco's modified Eagle's medium (DMEM; Euroclone) supplemented with 20% (v/v) FBS, 2 mM L-glutamine, and 1% (v/v) antibiotics (Pen/Strep). D425-MED, D425-MED-Luc and […] cells were grown in high-glucose Dulbecco's modified Eagle's medium (DMEM; Euroclone) and Iscove's Modified Dulbecco's Medium (IMDM; Sigma) at 1:1 (v/v) dilution supplemented with 20% (v/v) FBS, 2 mM L-glutamine, 1% non-essential amino acid solution (M7145; Sigma-Aldrich/Merck), and 1% (v/v) antibiotics (Pen/Strep). The cells were grown at 37 °C in a humidified atmosphere of 95% air, 5% CO2 (v/v).
D425.MED and MMTV-Prune1/Wnt1 cells were plated and treated with increasing concentrations of LEO-AA7.5(S)T for 24 hours. Water-treated cells were used as negative control for the experiments.
as §1

COc1ccc(CNc2ccnc(N3CC[C@@H](O)C3)n2)cc1 [AA7.1, (R)-1-(4-((4-methoxybenzyl)amino)pyrimidin-2-yl)pyrrolidin-3-ol, reference compound]
acute toxicity (hematological parameters, hepatotoxicity, nephrotoxicity) [1]: no immediate acute toxicity
IC50 (D425-MED cells [2]): 130 ± 52.1 µM
MB progression / tumour growth in cerebellum (bioluminescence) (MATH1-Prune1/ TP53-/-): inhibit MB progression; also recorded: impairment of tumour growth

CC[C@]1(O)C[C@H]2CN(CCc3c([nH]c4ccccc34)[C@@](C(=O)OC)(c3cc4c(cc3OC)N(C=O)[C@H]3[C@@](O)(C(=O)OC)[C@H](OC(C)=O)[C@]5(CC)C=CCN6CC[C@]43[C@@H]65)C2)C1 [Vincristine]
Caspase 3 activation, single agent (Caspase 3): activation of Caspase 3
half maximal inhibitory concentration (IC50) for the inhibition of cell proliferation index [3]: 35 µM and 19,6 µM

COc1ccc(CNc2ncnc(N3CCCC(CO)C3)n2)cc1 (stereo not drawn) [compound (I)]
dose of the chemotherapeutics diminished by synergistic action with Vincristine (D425-MED cells [4]): more than 100 fold
